# Results from US11213494B2 (priority 2016, dated 2022).
# Assays:
# [1] = tested on: Fos expression in the forebrain (piriform cortex); assay: Fos immunostaining 90 min after ketamine injection, count of Fos-positive cells; format: in vivo, mice; settings: for number of Fos-positive cells in the piriform cortex: 90 min after injection
# Procedure: Three- and 6-week-old male mice, or 11-week-old female mice, were deeply anesthetized by inhalation of isoflurane and perfused transcardially with PBS followed by ice-cold 4% paraformaldehyde in 0.1Mphosphate buffer, pH7.4, within 10 min. […] Brains were postfixed in 4% paraformaldehyde for 2.5 h, cryoprotected in 25% sucrose overnight, then frozen in 2-methylbutane at −45° C. and stored at −80° C. Coronal sections were cut at 40 μm with a cryostat microtome (Jung Frigocut 2800 N) and stored in PBS at 4° C.
# Free-floating 40 μm sections were processed for Fos immunostaining by blocking with 10% goat serum in dilution buffer (PBS, BSA, 0.3% Triton X-100) for 1.5 h and then incubated overnight at room temperature (20±2 h) in rabbit polyclonal anti-c-Fos primary antibody (1:3000, Calbiochem) in dilution buffer plus 10% goat serum. After sequential rinse steps in dilution buffer and PBS, sections were incubated in biotinylated goat anti-rabbit IgG secondary antibody (1:400, Vector Labs) in dilution buffer plus 15% goat serum for 1 h. After rinsing in PBS, sections were incubated in avidin and biotinylated horseradish peroxidase complex (ABC, 1:150, Vector Labs). Finally, sections were developed using the Sigma Fast diaminobenzidine and urea hydrogen peroxide set, mounted on Super Frost Plus slides and coverslipped using VectaShield (Vector Labs).
# Animals were administered ketamine (8, 20, or 100 mg/kg, i.p.) or an equivalent volume of saline and then returned to their home cage for 90 min. Subsequently, the animals were deeply anesthetized by inhalation of isoflurane, perfused transcardially, and processed for Fos staining as described above.
# Sections were visualized and photographed using an AxioSkop2 microscope (Zeiss) equipped with a Quantifire XI microscope camera (Optronics). Fos positive cells were counted using point by-point analysis with Neurolucida software (MBF Bioscience). Before analysis, the photomicrographs were coded so that the observers were blinded to the genotype. Cells were counted in every third section through the nTS, and in a representative subset of sections through the other brain regions analyzed. All sections were analyzed twice by two independent and blinded observers, and respective counts were averaged. The nTS was sampled at 12 levels through the rostro-caudal extent of the nucleus and the average counts at each level were then added together to estimate the total number of labeled cells per animal. To define genotype effects on Fos expression, G*Power 3 power analysis software was used to determine group sizes.
# Mecp2 Het mice = assay: Prepulse inhibition (PPI) of the acoustic startle response; format: in vivo; settings: ketamine 8 mg/kg; for % PPI 73 dB: prepulse 73 dB; for % PPI 76 dB: prepulse 76 dB; for % PPI 82 dB: prepulse 82 dB
# Procedure: Prepulse inhibition (PPI) of the acoustic startle response (ASR) was measured to assess sensorimotor gating function using Med Associates Startle Response recording system. Mice were divided into four groups (Het ketamine, Het vehicle, Wt ketamine, Wt vehicle), and received injections of either ketamine (8 mg/kg) or an equivalent amount of saline immediately before they were placed individually inside a small-sized, nonrestrictive, cubical Plexiglas recording chamber [2.5 inches (L)×2.5 inches (W)×1.75 inches (H)] fixed on an accelerometer platform and allowed to acclimate for 5 min. Subsequently, the mouse was exposed to 4 testing blocks. In the first testing block, the initial startle response amplitude was determined by delivering a 40 ms pulse of 120 dB broadband white noise and recording the maximum startle amplitude (Vmax). A baseline startle response was determined by repeating this recording paradigm for six consecutive trials (with 8-23 s between each stimulus) and calculating the average Vmax measured in those trials. In the second and third testing blocks, the mice were exposed to a series of “pulse-only” or “prepulse-pulse pair” stimuli to determine the effect that a reduced intensity prepulse had on the acoustic startle response. The pulse-only stimulus consisted of an 80 ms stimulus of 120 dB. The prepulse-pulse pair trials were conducted by delivering a single 20 ms prepulse, with an intensity of 73, 76 or 82 dB before an 80 ms stimulus with an intensity of 120 dB. An average delay of 15 s (8-23 s) occurred between each stimulus. Each prepulse-pulse pair trial was repeated 10 times, pulse only trials were repeated 12 times. The Vmax measured from each prepulse-pulse trial was compared with the Vmax measured from the 120 dB pulse-only trials, and a percentage prepulse inhibition (% PPI) was calculated for each prepulse intensity. In the fourth testing block, startle response Vmax was recorded from 6 additional 40 ms pulses of 120 dB broadband white noise (with 8-23 s between each stimulus) and compared with the baseline startle response from the first testing block to eliminate the possibility of habituation to the acoustic stimulus throughout the test.
# [2] = tested on: RTT mice (Mecp2Jae females); assay: Intermittent very low dose ketamine regimen with plethysmography; format: in vivo; settings: 3 mg/kg once every 3 days for two weeks, measured 24 hours after the last injection
# Procedure: FIG. 14 illustrates a very low dose ketamine (3 mg/kg) dosing regimen for the treatment of RTT in miceMecp2Jae OC females treated once every 72 hours for two weeks (saline or Ketamine 3 mg/kg) with plethysmography measurement 24 hours after the last injection.
# This Example evaluated a ketamine dosing regimen for the treatment of Rett syndrome. […] These effects are consistent with the ability of ketamine to increase activity in cortical pyramidal cells by selectively inhibiting cortical inhibitory interneurons.
# [3] = in vivo; cited from earlier work
compound,measurement,setting,value
CNC1(c2ccccc2Cl)CCCCC1=O (stereo not drawn) [ketamine],number of Fos-positive cells in the piriform cortex,"[1]; Null mice, ketamine 20 mg/kg i.p.",83.2±18.2 cells
same,number of Fos-positive cells in the piriform cortex,"[1]; Null mice, ketamine 100 mg/kg i.p.",116.3±26.4 cells
same,number of Fos-positive cells in the piriform cortex,"[1]; Wt mice, ketamine 100 mg/kg i.p.",119.3±17.2 cells
same,increase in the number of Fos-positive cells,"[1]; Wt mice, ketamine 100 mg/kg, piriform cortex",20%
same,% PPI 73 dB,Mecp2 Het mice; Het mice,5.3±5.8%
same,% PPI 76 dB,Mecp2 Het mice; Het mice,17.8±2.9%
same,% PPI 82 dB,Mecp2 Het mice; Het mice,21.4±6.4%
same,% PPI 73 dB,Mecp2 Het mice; Wt mice,7.8±4.1%
same,% PPI 76 dB,Mecp2 Het mice; Wt mice,12.8±4.8%
same,% PPI 82 dB,Mecp2 Het mice; Wt mice,24.1±5.8%
same,apneic breathing,[2],complete elimination
same,half-life,[3],less than 1 hour
